We go through 2 compounds from US20140370177A1, “COMPOSITIONS” (Givaudan S.A., priority 2011, published 2014).

Holding throughout (assay type): in vivo, human
For one assay, the system named is experienced tasters. In words: Comparison of upfront sweetness on top of 5% sucrose solution, 5 experienced tasters. On the procedure: Two mixtures, stevioside/rebaudioside A (3:1) and (2:1) were evaluated for their upfront sweetness in comparison with pure stevioside and rebaudioside A. Sensory evaluation was carried out with 5 experienced tasters. 30 ppm of stevioside/rebaudioside A (3:1), (2:1), and Rebaudioside A on top of 5% sucrose solution were prepared along with 20, 35, 45, 75 ppm stevioside in 5% sucrose solutions. Samples were prepared fresh and at room temperature and were paired and tasted with water rinsing in-between.

Assay [1] relates to sweet sensitive panelists. In words: Ranking test in water, sucrose iso-intensity, formal sensory panel (R-index). The note with it: for More Sweet Sample / R-index: in water. On the procedure: (§1) The sensory evaluation was conducted using a ranking method. Samples at ambient temperature were randomly presented in 20 ml blind aliquots (unidentifiable by panelists). Panels consisted of 20 sweet sensitive subjects and samples were presented in 2 replications over 1 session. After tasting each sample, the mouth was rinsed thoroughly with water at ambient temperature prior to tasting the next sample. Panelists were presented with 0.5%, 1.0%, and 1.5% sucrose solutions in water and two samples of stevioside/rebaudioside A at 30 and 45 ppm in water, respectively. Subjects were asked to rank the samples from low to high with respect to perceived sweet taste. R-indices were calculated for 30 and 45 ppm stevioside/rebaudioside A samples versus either 0.5%, 1.0% or 1.5% sucrose.
The sensory evaluation was conducted using the same method as described in Example 4. Panels consisted of 20 sweet sensitive subjects and samples were presented in 2 replications over 1 session. Panelists were presented with 20 mL of 0.5%, 1.0%, and 1.5% sucrose solutions in water and two samples of stevioside/rebaudioside A (3:1) at 35 and 40 ppm in water, respectively. Subjects were asked to rank the samples from low to high with respect to perceived sweet taste. R-indices were calculated for 35 and 40 ppm stevioside/rebaudioside A samples versus either 0.5%, 1.0% or 1.5% sucrose.
Two ounces of each sample was presented in random order to 20 sweet sensitive panelists. In two replications (over 1 session), Panelists were asked to rank the samples from least sweet to most sweet. The data were subjected to an R-index analysis.

Assay [2] relates to sweet sensitive panelists. In words: Iso-intensity in 5% sucrose solution (sweetness enhancement), formal sensory panel (R-index). The procedure: as §1
The sensory evaluation was conducted using the same method as described in Example 4. Panels consisted of 20 sweet sensitive subjects and samples were presented in 2 replications over 1 session. Panelists were presented with 20 mL of 5.5%, 6.0%, 6.5%, 7.0%, 8.0% sucrose solutions and one sample of 35 ppm stevioside/rebaudioside A in 5.0% sucrose, respectively. Subjects were asked to rank the samples from low to high with respect to perceived sweet taste. R-indices were calculated for 35 ppm stevioside/rebaudioside A in 5.0% sucrose sample versus either 6.0%, 6.5%, 7.0% or 8.0% sucrose.
The objective of this test was to determine the extent to which stevioside enhances sweetness perception of a 5% sucrose solution.
This example examined the effect of 30 ppm rebaudioside A on top of 5% sucrose.

Setting [3] is: 30 ppm Stevioside vs. 0.5% sucrose.
The mark [4] stands for this setting: 30 ppm Stevioside vs. 1.0% sucrose.
The mark [5] stands for this setting: 30 ppm Stevioside vs. 1.5% sucrose.
The mark [6] stands for this setting: 30 ppm Stevioside vs. 40 ppm Stevioside.
The mark [7] stands for this setting: 40 ppm Stevioside vs. 0.5% sucrose.
Setting [8] is: 40 ppm Stevioside vs. 1.0% sucrose.
[9] abbreviates: 40 ppm Stevioside vs. 1.5% sucrose.
The mark [10] stands for this setting: 5% sucrose + 35 ppm Stevioside vs. 5.0% sucrose.
The mark [11] stands for this setting: 5% sucrose + 35 ppm Stevioside vs. 6.0% sucrose.
Setting [12] is: 5% sucrose + 35 ppm Stevioside vs. 7.0% sucrose.
The mark [13] stands for this setting: 5% sucrose + 30 ppm RebA vs. 5% sucrose.
Setting [14] is: 5% sucrose + 30 ppm RebA vs. 6% sucrose.
The mark [15] stands for this setting: 5% sucrose + 30 ppm RebA vs. 7% sucrose.

Regarding `C=C1C[C@@]23CC[C@H]4[C@@](C)(CCC[C@@]4(C)C(=O)O[C@@H]4O[C@H](CO)[C@@H](O)[C@H](O)[C@H]4O)[C@@H]2CC[C@]1(O[C@@H]1O[C@H](CO)[C@@H](O)[C@H](O)[C@H]1O[C@@H]1O[C@H](CO)[C@@H](O)[C@H](O)[C@H]1O)C3` [Stevioside, stevioside], the “Description of upfront sweetness” value in the assay with experienced tasters (20, 35, 45, 75 ppm in 5% sucrose solutions) is “delayed onset and lack of the upfront sweetness”. Also, in the assay with experienced tasters (75 ppm in 5% sucrose solution), the Ranking of sweetness entry was “ranked as the sweetest but not the most upfront one”. Further, the “More Sweet Sample” value in assay [1] (setting [3]) was determined as 30 ppm; in assay [1] (setting [4]), 1.0% sucrose; in assay [1] (setting [5]) it was 1.5% sucrose; in assay [1] (setting [6]), 40 ppm; in assay [1] (setting [7]) it was 40 ppm; in assay [1] (setting [8]), 40 ppm. In addition, the “More Sweet Sample” value in assay [1] (setting [9]) stood at 1.5% sucrose; in assay [2] (setting [10]), 5% sucrose +; in assay [2] (setting [11]), 5% sucrose +; in assay [2] (setting [12]), 7.0% sucrose. For the same compound, the R-index in assay [1] (setting [3]) turned out to be 25.625; in assay [1] (setting [4]) it was 66.938; in assay [1] (setting [5]), 94.750; in assay [1] (setting [6]), 80.188; in assay [1] (setting [7]) it was 11.375; in assay [1] (setting [8]), 29.094. Besides, the R-index was found to be 82.219 in assay [1] (setting [9]), 8.281 in assay [2] (setting [10]), 21.094 in assay [2] (setting [11]) and 78.125 in assay [2] (setting [12]). Also, the “Sucrose equivalence of sweetness by interpolation” value in assay [1] (30 ppm in water) came out at 0.75 % sucrose; in assay [1] (40 ppm in water), 1.25 % sucrose. Besides, the “Isosweet sucrose concentration determined from 30 and 40 ppm data” value in assay [1] (35 ppm in water) is recorded as 1.0 % sucrose. The “Iso-sweet sucrose concentration by interpolation” value in assay [2] (35 ppm in 5% sucrose) is given as 6.5 % sucrose. The “Additional sucrose equivalence (sweetness enhancing effect)” value in assay [2] (35 ppm on top of 5% sucrose) was 0.5 % sucrose equivalence.
`C=C1C[C@@]23CC[C@H]4[C@@](C)(CCC[C@@]4(C)C(=O)O[C@@H]4O[C@H](CO)[C@@H](O)[C@H](O)[C@H]4O)[C@@H]2CC[C@]1(O[C@@H]1O[C@H](CO)[C@@H](O)[C@H](O[C@@H]2O[C@H](CO)[C@@H](O)[C@H](O)[C@H]2O)[C@H]1O[C@@H]1O[C@H](CO)[C@@H](O)[C@H](O)[C@H]1O)C3` [rebaudioside A]: the Iso-intense sucrose concentration in assay [1] (30 ppm, iso-intensity study) is recorded as 1 % sucrose. Further, the values for the More Sweet Sample in assay [2] (setting [13]), in assay [2] (setting [14]) and in assay [2] (setting [15]) were 5% sucrose +, 5% sucrose + and 7% sucrose, respectively. Further, the R-index is 1.313 in assay [2] (setting [13]), 22.625 in assay [2] (setting [14]) and 89.000 in assay [2] (setting [15]). In addition, the “Isosweet sucrose concentration by interpolation” value in assay [2] (30 ppm in 5% sucrose) is given as 6.5 % sucrose. Also, in assay [2] (30 ppm on top of 5% sucrose), the “Sucrose equivalence in enhancement” value stood at 0.5 % sucrose equivalence.
